Test results published in ChEMBL document CHEMBL5214939, “Design, synthesis and biological evaluations of novel farnesoid X receptor (FXR) agonists” (Bioorg Med Chem Lett, 2022).
The source made the active and inactive calls. No cut-off for these calls is given here.

Columns and labels:
[1] = species on record: Mus musculus; assay: Protection against Con-A induced autoimmune hepatitis mouse model assessed as reduction in ALT level; assay type: functional, organism-based
[2] = target: T1, Bile acid receptor (Homo sapiens, UniProt Q96RI1); assay: Agonist activity at FXR in HEK293T cells assessed as transcriptional activity by measuring […] by luciferase reporter assay; assay type: cell-based
T1 sequence (Q96RI1 whole entry): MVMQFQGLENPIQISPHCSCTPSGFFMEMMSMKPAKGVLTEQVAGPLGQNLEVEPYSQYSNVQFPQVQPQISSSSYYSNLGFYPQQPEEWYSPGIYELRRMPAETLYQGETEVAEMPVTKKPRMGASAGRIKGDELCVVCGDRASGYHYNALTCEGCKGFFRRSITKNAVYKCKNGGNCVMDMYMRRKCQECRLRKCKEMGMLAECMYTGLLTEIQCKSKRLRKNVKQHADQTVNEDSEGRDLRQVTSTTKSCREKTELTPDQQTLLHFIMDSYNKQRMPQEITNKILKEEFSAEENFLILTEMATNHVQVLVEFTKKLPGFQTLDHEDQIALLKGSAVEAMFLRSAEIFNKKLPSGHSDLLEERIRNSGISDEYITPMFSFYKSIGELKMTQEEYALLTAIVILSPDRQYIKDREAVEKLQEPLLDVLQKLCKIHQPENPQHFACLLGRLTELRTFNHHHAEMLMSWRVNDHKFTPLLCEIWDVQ

[3] = AUCinfinity in mouse at 100 mg/kg, po; assay type: ADME, organism-based; design: time infinity, dose 100 mg/kg, route po; conditions: in vivo
[4] = AUCinfinity in mouse at 5 mg/kg, iv; assay type: ADME, organism-based; design: time infinity, dose 5 mg/kg, route iv; conditions: in vivo
[5] = AUC (0 to t) in mouse at 100 mg/kg, po; assay type: ADME, organism-based; design: dose 100 mg/kg, route po; conditions: in vivo
[6] = Oral bioavailability in mouse at 100 mg/kg; assay type: ADME, organism-based; conditions: in vivo
[7] = species on record: Mus musculus; assay: Protection against Con-A induced autoimmune hepatitis mouse model assessed as reduction in AST level; assay type: functional, organism-based
[8] = AUC (0 to t) in mouse at 5 mg/kg, iv; assay type: ADME, organism-based; design: dose 5 mg/kg, route iv; conditions: in vivo
[9] = Clearance in mouse at 100 mg/kg, po or 5 mg/kg, iv; assay type: ADME, organism-based; conditions: in vivo
[10] = Half life in mouse at 100 mg/kg, po; assay type: ADME, organism-based; conditions: in vivo
[11] = Cmax in mouse at 100 mg/kg, po; assay type: ADME, organism-based; design: dose 100 mg/kg, route po; conditions: in vivo
[12] = Tmax in mouse at 100 mg/kg, po; assay type: ADME, organism-based; conditions: in vivo
[13] = Tmax in mouse at 20 mg/kg, po; assay type: ADME, organism-based; conditions: in vivo
[14] = AUC (0 to t) in mouse at 20 mg/kg, po; assay type: ADME, organism-based; design: dose 20 mg/kg, route po; conditions: in vivo
[15] = Cmax in mouse at 20 mg/kg, po; assay type: ADME, organism-based; design: dose 20 mg/kg, route po; conditions: in vivo
[16] = Clearance in mouse at 20 mg/kg, po or 5 mg/kg, iv; assay type: ADME, organism-based; conditions: in vivo
[17] = Oral bioavailability in mouse at 20 mg/kg; assay type: ADME, organism-based; conditions: in vivo
[18] = Half life in mouse at 20 mg/kg, po; assay type: ADME, organism-based; conditions: in vivo
[19] = AUCinfinity in mouse at 20 mg/kg, po; assay type: ADME, organism-based; design: time infinity, dose 20 mg/kg, route po; conditions: in vivo

Compound: CN(Cc1ccc(C(=O)O)cc1)c1ccc(OCc2c(-c3c(Cl)cccc3Cl)nsc2C2CC2)nc1C(F)(F)F
- Activity [1]: Active
- EC50 [2]: 310 nM

Compound: CN(Cc1ccc(C(=O)O)cc1)c1ccc(OCc2c(-c3c(Cl)cccc3Cl)nsc2C2CC2)cc1C(F)(F)F
- Activity [1]: Active
- EC50 [2]: 410 nM

Compound: CN(Cc1cccc(C(=O)NO)c1)c1ccc(OCc2c(-c3c(Cl)cccc3Cl)nsc2C2CC2)nc1C(F)(F)F
- EC50 [2]: 1090 nM

Compound: CN(Cc1cccc(C(=O)O)c1)c1ccc(OCc2c(-c3c(Cl)cccc3Cl)nsc2C2CC2)nc1C(F)(F)F
- AUC [3]: 5415 ng·h/mL
- AUC [4]: 5822 ng·h/mL
- AUC(0-t) [5]: 5370 ng·h/mL
- F [6]: 73%
- Activity [7]: Active
- AUC(0-t) [8]: 5760 ng·h/mL
- CL [9]: 0.86 L/h/kg
- Activity [1]: Active
- EC50 [2]: 270 nM
- half-life [10]: 156 min
- Cmax [11]: 40200 ng/mL
- Tmax [12]: 30 min

Compound: CC(C)c1snc(-c2c(Cl)cccc2Cl)c1COc1ccc(N(C)Cc2ccc(C(=O)O)s2)c(C(F)(F)F)n1
- EC50 [2]: 510 nM

Compound: CN(Cc1ccc(C(=O)NO)cc1)c1ccc(OCc2c(-c3c(Cl)cccc3Cl)nsc2C2CC2)nc1C(F)(F)F
- EC50 [2]: > 30000 nM

Compound: CC(C)c1snc(-c2c(Cl)cccc2Cl)c1COc1ccc(N(C)Cc2ccc(C(=O)O)cc2)c(C(F)(F)F)n1
- Activity [7]: Active
- Activity [1]: Active
- EC50 [2]: 350 nM

Compound: CC(C)c1snc(-c2c(Cl)cccc2Cl)c1COc1ccc(/C=C/c2cccc(C(=O)O)c2)c(Cl)c1
- EC50 [2]: 570 nM

Compound: CC(C)c1snc(-c2c(Cl)cccc2Cl)c1COc1ccc(N(C)CC2CCCC(C(=O)O)C2)c(C(F)(F)F)n1 (centres undefined)
- EC50 [2]: > 30000 nM

Compound: CC(C)c1onc(-c2c(Cl)cccc2Cl)c1COc1ccc(/C=C/c2cccc(C(=O)O)c2)c(Cl)c1
- Tmax [13]: 30 min
- AUC [4]: 3162 ng·h/mL
- AUC(0-t) [14]: 85200 ng·h/mL
- Cmax [15]: 4787 ng/mL
- AUC(0-t) [8]: 3140 ng·h/mL
- CL [16]: 1.58 L/h/kg
- F [17]: 42.81%
- t1/2 [18]: 1.53 h
- AUC [19]: 85283 ng·h/mL

Compound: CCN(Cc1ccc(C(=O)O)cc1)c1ccc(OCc2c(-c3c(Cl)cccc3Cl)nsc2C(C)C)nc1C(F)(F)F
- EC50 [2]: 2160 nM
